Source: the OPERA property sets (Mansouri et al. 2018)

In order of rising melting point:
1. CCCCOC  -116 °C
2. CCCCOCCOCCO  -68 °C
3. CCc1cccc(C)c1N(C(=O)CCl)C(C)COC (stereo unspecified)  -51 °C
4. COCCOC(=O)c1ccccc1C(=O)OCCOC  -45 °C
5. ClC(Cl)(Cl)Cl  -23 °C
6. OCCOCCO  -10.4 °C
7. O=[N+]([O-])c1cc(C(F)(F)F)ccc1Cl  -2.5 °C
8. CCC(=O)c1cc(C)ccc1O  2 °C
9. CCCCCCCCc1ccc(N)cc1  20 °C
10. CCCCCCCCCCC(C)C(=O)O (stereo unspecified)  22 °C
11. OCCNCCO  28 °C
12. COC(=O)c1ccc(C)cc1  33.2 °C
13. CCCCCCCCCCCC(=O)CC  34 °C
14. CCC=NO  40 °C
15. Cc1cc(Cl)nn1C  47.5 °C
16. CCOP(=S)(OCC)SCn1c(=O)oc2cc(Cl)ccc21  47.8 °C
17. Nc1cccc2ccccc12  49.2 °C
18. COc1cccc([N+](=O)[O-])c1C  55 °C
19. COc1ccc(C(=O)c2ccccc2)cc1  61.5 °C
20. O=Cc1ccc2ccccc2c1  62 °C
21. CCCOC(=O)NCCCN(C)C.Cl  64.2 °C
22. Clc1nc(Cl)c(Cl)c(Cl)n1  69 °C
23. O=[N+]([O-])c1ccc(Cc2ccncc2)cc1  71 °C
24. Cc1c2ccccc2cc2ccccc12  81.5 °C
25. Cc1ncsc1C  83.5 °C
26. CNC(=O)O/N=C(\C)C(C)S(C)(=O)=O (stereo unspecified)  87 °C
27. BrC1c2ccccc2-c2ccccc21  104 °C
28. CCOC(=O)CC[C@H](N)C(=O)OCC.Cl  109 °C
29. Cc1cc(O)ccc1N=Nc1ccccc1  109 °C
30. O=[N+]([O-])c1ccc2[nH]ccc2c1  141 °C
31. O=C(O)c1ccc(Cl)cc1[N+](=O)[O-]  144 °C
32. O=C(O)c1cccc(Oc2ccccc2)c1  150 °C
33. O=C(NC(Cc1ccccc1)c1ccccc1)c1cccnc1 (stereo unspecified)  159 °C
34. CC(CCC(=O)O)(c1ccc(O)cc1)c1ccc(O)cc1  172 °C
35. CN(C)CCc1c[nH]c2cccc(O)c12  174 °C
36. CC(C)(C(N)=O)n1nc2ccccc2n1  174 °C
37. ClC(Cl)(Cl)C(Cl)(Cl)Cl  187 °C
38. c1ccc(-c2nnc(-c3ccccn3)nc2-c2ccccc2)cc1  192 °C
39. CC(=O)N(c1onc(C)c1C)S(=O)(=O)c1ccc(N)cc1  194 °C
40. O=C(O)C1CSCN1 (stereo unspecified)  196 °C
41. CN1CC[C@]23CCCC[C@H]2[C@H]1Cc1ccc(O)cc13  198 °C
42. O=C(O)c1cccc(C(=O)O)c1C(=O)O  200 °C
43. O=C1CCC(=O)N1I  204 °C
44. Cc1n[nH]c(=S)[nH]c1=O  218 °C
45. C[C@]12CC[C@H](O)C=C1CC[C@@H]1[C@@H]2CC[C@]2(C)[C@@H](c3ccc(=O)oc3)CC[C@]12O  235 °C
46. c1ccc2cc(Nc3ccc(Nc4ccc5ccccc5c4)cc3)ccc2c1  235 °C
47. O=C(Nc1ccc(Br)cc1)c1cc(Br)ccc1O  242 °C
48. Cc1cc(O)c(C(C)C)cc1C1(c2cc(C(C)C)c(O)cc2C)OC(=O)c2ccccc21  253 °C
49. Nc1nc2nn[nH]c2c(=O)[nH]1  300 °C

In order of rising boiling point:
1. CCCCOC  70.1 °C
2. ClC(Cl)(Cl)Cl  76.8 °C
3. CCOC(=O)C(F)F  100 °C
4. CC(Cl)(Cl)[N+](=O)[O-]  124 °C
5. CCC(C)CO (stereo unspecified)  128 °C
6. CCC=NO  132 °C
7. C=CC(=O)OCC(F)(F)C(F)F  132 °C
8. COC(=O)C=C(C)C  136 °C
9. CN(C)CCCN(C)C  144 °C
10. Cc1ncsc1C  158 °C
11. OCC1CCCC1  163 °C
12. CC1=CC=C(C(C)C)CC1  175 °C
13. Cc1cc(Cl)nn1C  211 °C
14. CCOC(=O)C(C#N)(CC)CC  214 °C
15. CCCC=C(CCCC)CCCC  216 °C
16. COC(=O)c1ccc(C)cc1  220 °C
17. O=[N+]([O-])c1cc(C(F)(F)F)ccc1Cl  222 °C
18. Cc1ccc(CCC=O)cc1  223 °C
19. CC(=O)COc1ccccc1  230 °C
20. CCCCOCCOCCO  231 °C
21. OCCOCCO  246 °C
22. OCCNCCO  269 °C
23. CCCCCOC(=O)c1ccccc1O  270 °C
24. Nc1cccc2ccccc12  301 °C
25. CCCCCCCCc1ccc(N)cc1  310 °C
26. OCCC(O)CO (stereo unspecified)  312 °C
27. COCCOC(=O)c1ccccc1C(=O)OCCOC  340 °C
28. COc1ccc(C(=O)c2ccccc2)cc1  355 °C

In order of falling log10 vapour pressure (mmHg):
1. CCCCOC  2.14
2. ClC(Cl)(Cl)Cl  2.06
3. CC(Cl)(Cl)[N+](=O)[O-]  1.23
4. CCC(C)CO (stereo unspecified)  0.494
5. ClC(Cl)(Cl)C(Cl)(Cl)Cl  -0.678
6. CCCCOCCOCCO  -1.66
7. OCCOCCO  -2.24
8. Nc1cccc2ccccc12  -2.38
9. OCCNCCO  -3.55
10. Cc1c2ccccc2cc2ccccc12  -4.4
11. CCc1cccc(C)c1N(C(=O)CCl)C(C)COC (stereo unspecified)  -4.5
12. CNC(=O)O/N=C(\C)C(C)S(C)(=O)=O (stereo unspecified)  -5.7
13. Clc1ccc2c(Cl)c(Cl)c(Cl)c(Cl)c2c1  -5.96
14. CCCOC(=O)NCCCN(C)C.Cl  -6.54

In order of falling log10 Henry constant (atm·m³/mol):
1. ClC(Cl)(Cl)Cl  -1.56
2. ClC(Cl)(Cl)C(Cl)(Cl)Cl  -2.41
3. Clc1cc(Cl)c(Cl)c(-c2c(Cl)ccc(Cl)c2Cl)c1  -4.25
4. CCC(C)CO (stereo unspecified)  -4.85
5. Nc1cccc2ccccc12  -6.95
6. CCc1cccc(C)c1N(C(=O)CCl)C(C)COC (stereo unspecified)  -8.05
7. CCCCOCCOCCO  -8.14

In order of falling log10 Koc (L/kg):
1. Cc1c2ccccc2cc2ccccc12  4.81
2. Nc1cccc2ccccc12  3.51
3. CCOP(=S)(OCC)SCn1c(=O)oc2cc(Cl)ccc21  2.63
4. CCc1cccc(C)c1N(C(=O)CCl)C(C)COC (stereo unspecified)  2.46
5. ClC(Cl)(Cl)Cl  1.85
6. OCCNCCO  0.6

In the case of `OCCNCCO`, the ready biodegradability is reported as “readily biodegradable”.
For `ClC(Cl)(Cl)C(Cl)(Cl)Cl`, the ready biodegradability was “not readily biodegradable”.
With `CCCCOCCOCCO` the ready biodegradability was “readily biodegradable”.
With `Nc1cccc2ccccc12` the ready biodegradability was “not readily biodegradable”.
For `ClC(Cl)(Cl)Cl`, the ready biodegradability was “not readily biodegradable”.
For `ClCCc1ccccc1`, the ready biodegradability was “not readily biodegradable”.
In the case of `OCCOCCO`, the ready biodegradability is reported as “readily biodegradable”.
With `CC(=O)CC(=O)Nc1ccc(C)cc1` the ready biodegradability was “readily biodegradable”.
In the case of `CCCCCCCCc1ccc(N)cc1`, the ready biodegradability is reported as “readily biodegradable”.

In order of rising log10 Koa:
1. ClC(Cl)(Cl)Cl  2.79
2. ClC(Cl)(Cl)C(Cl)(Cl)Cl  4.47

`Cc1c2ccccc2cc2ccccc12` gave a log10 biodegradation half-life (days) of 2.42.
